Patent publication US20240418701A1, “SINGLE MOLECULE IDEN[…] A REACTIVE HETERO-NANOPORE” (priority 2021, published 2024)

What was measured:
[1] = target: T1, MspA-PBA (boronic acid appended hetero-octameric MspA) (Mycolicibacterium smegmatis, UniProt A0QR29, D117C/D118N/D120N/D145R/D161R/E166K); assay: Single channel recording of alditol binding to MspA-PBA nanopore (standards and zero-sugar drinks); design: species or system Mycobacterium smegmatis; details: N=3; for ratio (mean current percentage blockage) / std (standard deviation of the blocking level): alditol 4 mM (glycerol 8 mM) in cis
T1 construct: H6 (hexa-histidine) (C); 3-(maleimide) phenylboronic acid (MPBA) adduct on the thiol of Cys90; made in house; host or cells: E. coli BL21 (DE3) pLysS, co-expression from pETDuet-1
T1 sequence (A0QR29 other isoform, or with tags, fused parts or gaps D117N/D118N/D120N/D145R/D161R/E166K): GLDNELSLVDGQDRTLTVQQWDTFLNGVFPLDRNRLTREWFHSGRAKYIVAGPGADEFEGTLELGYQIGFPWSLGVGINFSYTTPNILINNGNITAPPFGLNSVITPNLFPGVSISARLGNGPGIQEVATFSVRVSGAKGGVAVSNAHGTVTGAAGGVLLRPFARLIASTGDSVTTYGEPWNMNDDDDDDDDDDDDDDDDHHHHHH
T1 sequence (A0QR29 other isoform, or with tags, fused parts or gaps D117C/D118N/D120N/D145R/D161R/E166K): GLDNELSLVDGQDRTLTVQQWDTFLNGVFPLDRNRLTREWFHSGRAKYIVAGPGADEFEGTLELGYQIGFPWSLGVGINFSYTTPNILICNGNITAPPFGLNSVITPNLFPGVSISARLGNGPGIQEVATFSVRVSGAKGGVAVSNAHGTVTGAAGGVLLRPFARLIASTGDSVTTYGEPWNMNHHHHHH
Procedure: FIG. 88: Definition of event parameters. (a) A representative electrophysiology trace containing nanopore events. Xylitol was treated as the model analyte. I0 is the open pore current and Ib is the residual current caused by alditol blockade. ratio is derived from (I0−Ib)/I0, which is defined as the percentage blockage. τoff represents the dwell time of an event. τon represents the inter-event interval. std is the standard deviation value of the blockage level. (b-c) The histogram plot of ratio (b) and std (c) acquired from a continually recorded trace. The histograms were Gaussian fitted and the peaks of the fitting results respectively represent the mean value of ratio and the mean std. (d-e) The histogram plots of τoff (d) and τon (e) acquired from a continually recorded trace. The histogram plots were respectively fit to a single exponential curve, according to the equation y=a*exp (−x/τ), from which the mean event dwell time (τoff) (d) and the mean inter-event interval (τon) (e) were respectively derived. If not otherwise stated, all results in this manuscript were described by event parameters defined above.
All subsequent nanopore measurements were carried out with a 1.5 M KCl buffer (1.5 M KCl, 10 mM 3-(N-Morpholino) propanesulfonic acid (MOPS), pH 7.0) and a +100 m V continually applied potential (Method 1 in Example 3). 13 types of alditols, which were derived from the reduction of the carbonyl group of C3-C6 monoaldoses were treated as model polyols (FIGS. 77b and 83). The PBA of MspA-PBA can complex with a polyol, forming a cyclic ester at the pore constriction and resulting in the corresponding nanopore event being reported. All alditols were added to the cis side of the pore and the final concentration of alditols was set at 4 mM with the exception of glycerol, which was set at 8 mM instead. […] In addition, single molecule sensing of glycerol and D-Sorbitol by MspA-PBA are as shown in FIGS. 104 and 105, respectively.
To describe the sensing events quantitatively, event parameters such as the open-pore current (I0), the current blockade (Ib), the percentage blockage (ratio), the event dwell time (τoff), the inter-event intervals (τon) and the standard deviation value of the blockage level (std) were defined as described in FIG. 88. The percentage blockage, also referred to for simplicity as ratio, is defined as (I0−Ib)/I0.
Quantitatively, the reciprocal of the mean inter-event interval (1/τon, N=3) is linearly correlated with the alditol concentration, consistent with a bimolecular model. The mean event dwell time τoff (N=3) however is independent of the alditol concentration, and this is consistent with a unimolecular dissociation mechanism (FIGS. 89e-92e, Table 18). […] The binding constant for borate cyclic ester formation for alditols increases as the number of hydroxyl groups in the alditol increases (FIG. 77c and Table 18), consistent with conclusions drawn previously from the corresponding NMR measurements.^52 Nanopore measurements were also performed with different applied voltages. […] This is expected because all alditols tested in this paper are electrically neutral and the formation of a borate ester is independent of the local electric field.
All nanopore measurements were performed as described previously.^1,2 Briefly, the measurement device has two custom chambers separated by a thick Teflon film containing a drilled (˜100 μm) aperture. Before the measurement, the aperture was first treated with 0.5% (v/v) hexadecane in pentane and set for pentane evaporation. Electrolyte buffer (500 μL) was added to the electrically grounded chamber (cis chamber) and the opposing chamber (trans chamber). All nanopore measurements in this paper were performed with a 1.5 M KCl buffer (1.5 M KCl, 10 mM MOPS, pH 7.0). Two custom-made Ag/AgCl electrodes were placed in both chambers in contact with the buffers and the patch-clamp amplifier to form a closed circuit. […]

Octameric M2 MspA = target: T2, Octameric M2 MspA (Mycolicibacterium smegmatis, UniProt A0QR29, D117N/D118N/D120N/D145R/D161R/E166K); assay: Alditol sensing using M2 MspA nanopore (control without PBA); format: binding, Mycobacterium smegmatis; details: alditol 4 mM in cis, +100 mV
T2 construct: made in house; host or cells: E. coli BL21 (DE3)
T2 sequence (A0QR29 28-211 D117N/D118N/D120N/D145R/D161R/E166K): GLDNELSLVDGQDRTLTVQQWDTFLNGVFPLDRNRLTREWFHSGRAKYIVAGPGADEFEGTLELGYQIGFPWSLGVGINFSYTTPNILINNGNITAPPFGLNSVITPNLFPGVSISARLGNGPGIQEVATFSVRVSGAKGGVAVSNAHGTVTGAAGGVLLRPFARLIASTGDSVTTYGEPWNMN
Procedure: FIG. 87: Alditol sensing using M2 MspA nanopore. Glycerol, erythritol, xylitol and sorbitol were used as the representative alditols with different number of hydroxyl groups. All measurements were carried out as described in Methods 1 in Example 3. Octameric M2 MspA was applied as the nanopore sensor. A transmembrane potential of +100 m V was continually applied. Each alditol was added to cis with a final concentration of 4 mM.
The octameric M2 MspA was used as a control in FIG. 87. It was expressed with E. coli BL21 (DE3) and purified by nickel affinity chromatography as reported previously.^1

[2] = target: T3, MspA-PBA (phenylboronic acid modified hetero-octameric (N90C)1(M2)7 MspA) (Mycolicibacterium smegmatis, UniProt A0QR29, D117C/D118N/D120N/D145R/D161R/E166K); format: binding, Mycobacterium smegmatis; details: +200 mV
T3 construct: H6 (hexa-histidine) (C); 3-(maleimide) phenylboronic acid (MPBA) adduct on the thiol of Cys90; made in house; host or cells: E. coli BL21 (DE3) pLysS, co-expression from pETDuet-1
Procedure: FIG. 46: Definition of event parameters. […] The measurement was carried out as described in Methods in Example 2. The chambers were filled with a 1.5 M KCl buffer (1.5 M KCl, 10 mM MOPS, pH 7.0). A transmembrane potential of +200 mV was continually applied. AMP was added to cis with a final concentration of 300 μM. The open pore current (Ip), the residual current (Ib), the dwell time (τoff) and the inter-event duration (τon) are defined as marked on the trace. The percentage blockage (% Ib) is defined as (Ip−Ib)/Ip. The noise amplitude (S.D.) is defined as the standard deviation of the blockage level.
NMPs consist of a ribose, a phosphate group and a nucleobase, serving as monomeric units of RNA. […] Experimentally, single channel recording was performed using MspA-PBA in a 1.5 M KCl buffer (1.5 M KCl, 10 mM MOPS, pH 7.0) (Methods in Example 2). A transmembrane potential of +200 mV was continually applied. Four canonical NMPs, adenine mononucleotide (AMP), guanine mononucleotide (GMP), cytosine mononucleotide (CMP) and uracil mononucleotide (UMP) were tested as analytes (FIG. 33d). Either type of NMP was added to cis at a final concentration of 300 μM. Subsequently, successive resistive pulses caused by either type of NMP were immediately observed (FIG. 33d). However, no events were observed when M2 MspA was tested, confirming that the PBA located at the pore constriction is critical in the generation of NMP sensing events (FIG. 44). At this condition, ˜1800 events/h were obtained from each pore. The pore could normally withstand a few hours of continuous measurement. Deoxyribonucleoside monophosphate (dNMP) fails to report any event when sensed by MspA-PBA (FIG. 45). This is expected because dNMPs have no cis-diol structure and can't form the boronate ester which is necessary for sensing. The molecular mechanism of sensing which results from reversible covalent bond formation between an NMP and the PBA at the pore constriction is thus confirmed.
To describe NMP sensing events quantitatively, the event dwell time (τoff), the inter-event interval (τon), the percentage blockage (% Ib=(Ip−Ib)/Ip) and the noise amplitude (S.D.) were derived as described in FIG. 46. Generally, the histograms of τoff and τon show an exponential distribution, and could be fitted to derive the mean time constants τoff or τon, respectively. The histograms of % Ib and S.D. show a Gaussian distribution, which could be fitted to derive the mean percentage blockage % Ib and S.D., respectively. During NMP sensing, by varying the NMP concentrations in cis, the reciprocal of dwell time (1/τoff) remains constant, consistent with a unimolecular dissociation mechanism. Whereas the reciprocal of the inter-event interval (1/τon) linearly correlates with the NMP concentration in cis (Tables 8-11, FIG. 47-50), consistent with a bimolecular model. The dependence of the applied voltage during NMP sensing was investigated using AMP as a representative analyte. […] This is expected because in a pH 7.0 buffer, the phosphate group of NMP is negatively charged and the electrophoretic force applied on the NMP analyte can strongly regulate the rate of event appearance and the event dwell time.

[3] = voltage series: +60 mV, glycerol 12 mM, other alditols 8 mM
[4] = voltage series: +80 mV, glycerol 12 mM, other alditols 8 mM
[5] = voltage series: +100 mV, glycerol 12 mM, other alditols 8 mM
[6] = voltage series: +120 mV, glycerol 12 mM, other alditols 8 mM

OCC(O)CO [glycerol]
ratio (mean current percentage blockage) ([1]; +100 mV): 17.07 ± 0.15%
std (standard deviation of the blocking level) ([1]; +100 mV): 2.57 ± 0.07 pA
1/τon ([1]; alditol 6 mM in cis, +100 mV): 1.3 ± 0.2 s⁻¹
τoff ([1]; alditol 6 mM in cis, +100 mV): 10.5 ± 0.8 ms
1/τon ([1]; alditol 8 mM in cis, +100 mV): 1.7 ± 0.2 s⁻¹
τoff ([1]; alditol 8 mM in cis, +100 mV): 10.3 ± 0.4 ms
1/τon ([1]; alditol 10 mM in cis, +100 mV): 2.1 ± 0.3 s⁻¹
τoff ([1]; alditol 10 mM in cis, +100 mV): 10.5 ± 0.7 ms
1/τon ([1]; alditol 12 mM in cis, +100 mV): 2.5 ± 0.3 s⁻¹
τoff ([1]; alditol 12 mM in cis, +100 mV): 10.4 ± 0.5 ms
1/τon [1, 3]: 2.2 ± 0.2 s⁻¹
1/τon [1, 4]: 2.35 ± 0.14 s⁻¹
1/τon [1, 5]: 2.4 ± 0.3 s⁻¹
1/τon [1, 6]: 2.4 ± 0.2 s⁻¹
binding events with M2 MspA (Octameric M2 MspA): No binding events were observed

OC[C@@H](O)[C@@H](O)[C@@H](O)CO [adonitol]
ratio (mean current percentage blockage) ([1]; +100 mV): 24.13 ± 0.15%
std (standard deviation of the blocking level) ([1]; +100 mV): 3.83 ± 0.07 pA

OC[C@@H](O)[C@@H](O)CO [erythritol]
ratio (mean current percentage blockage) ([1]; +100 mV): 22.00±0.17%
std (standard deviation of the blocking level) ([1]; +100 mV): 3.24±0.18 pA
1/τon ([1]; alditol 2 mM in cis, +100 mV): 0.42 ± 0.05 s⁻¹
τoff ([1]; alditol 2 mM in cis, +100 mV): 42.4 ± 0.5 ms
1/τon ([1]; alditol 4 mM in cis, +100 mV): 0.80 ± 0.05 s⁻¹
τoff ([1]; alditol 4 mM in cis, +100 mV): 43.4 ± 3.2 ms
1/τon ([1]; alditol 6 mM in cis, +100 mV): 1.16 ± 0.03 s⁻¹
τoff ([1]; alditol 6 mM in cis, +100 mV): 42.3 ± 2.3 ms
1/τon ([1]; alditol 8 mM in cis, +100 mV): 1.59 ± 0.09 s⁻¹
τoff ([1]; alditol 8 mM in cis, +100 mV): 44.2 ± 1.5 ms
1/τon [1, 3]: 1.62 ± 0.10 s⁻¹
1/τon [1, 4]: 1.65 ± 0.11 s⁻¹
1/τon [1, 5]: 1.64 ± 0.10 s⁻¹
1/τon [1, 6]: 1.65 ± 0.06 s⁻¹
binding events with M2 MspA (Octameric M2 MspA): No binding events were observed

OC[C@@H](O)[C@H](O)CO [threitol]
ratio (mean current percentage blockage) ([1]; +100 mV): 20.3 ± 0.2%
std (standard deviation of the blocking level) ([1]; +100 mV): 5.84 ± 0.18 pA

OC[C@@H](O)C(O)[C@H](O)CO [arabitol]
ratio (mean current percentage blockage) ([1]; +100 mV): 25.13 ± 0.15%
std (standard deviation of the blocking level) ([1]; +100 mV): 4.71 ± 0.03 pA

OC[C@@H](O)[C@@H](O)[C@H](O)[C@H](O)CO [mannitol]
ratio (mean current percentage blockage) ([1]; +100 mV): 29.2 ± 0.3%
std (standard deviation of the blocking level) ([1]; +100 mV): 3.09 ± 0.17 pA

OC[C@@H](O)[C@@H](O)[C@@H](O)[C@@H](O)CO [allitol]
ratio (mean current percentage blockage) ([1]; +100 mV): 27.57 ± 0.06%
std (standard deviation of the blocking level) ([1]; +100 mV): 4.64 ± 0.03 pA

OC[C@@H](O)[C@H](O)[C@H](O)[C@@H](O)CO [dulcitol]
ratio (mean current percentage blockage) ([1]; +100 mV): 28.9 ± 0.3%
std (standard deviation of the blocking level) ([1]; +100 mV): 5.22 ± 0.06 pA

O=c1[nH]cc([C@@H]2O[C@H](COP(=O)(O)O)[C@@H](O)[C@H]2O)c(=O)[nH]1 [Ψ, Pseudouridine-5′-monophosphate]
% Ib (percentage blockage) ([2]; NMP 300 μM in cis, N=3): 10.2 ± 0.2%
S.D. (noise amplitude of blockage level) ([2]; NMP 300 μM in cis, N=3): 2.40 ± 0.05 pA
τoff (mean dwell time) ([2]; NMP 300 μM in cis, N=3): 36.9 ± 3.4 ms
τon (mean inter-event interval) ([2]; NMP 300 μM in cis, N=3): 2047.7 ± 283.8 ms
Calibration coefficient δ (NMP binding events per unit concentration per min) ([2]; sole NMP 300 μM in cis, three independent measurements): 0.099 ± 0.014 µM⁻¹ min⁻¹

Nc1ncnc2c1ncn2[C@H]1C[C@H](O)[C@@H](COP(=O)(O)O)O1 [dAMP, 2′-deoxyadenosine-5′-phosphate]
sensing events with MspA-PBA ([2]; analyte 1 mM in cis): no dAMP sensing events were observed

OC[C@@H](O)[C@H](O)[C@H](O)[C@H](O)CO [talitol]
ratio (mean current percentage blockage) ([1]; +100 mV): 27.3 ± 0.2%
std (standard deviation of the blocking level) ([1]; +100 mV): 6.33 ± 0.06 pA

OC[C@@H](O)[C@H](O)[C@@H](O)[C@H](O)CO [iditol]
ratio (mean current percentage blockage) ([1]; +100 mV): 29.3 ± 0.2%
std (standard deviation of the blocking level) ([1]; +100 mV): 6.64 ± 0.03 pA

OC[C@@H](O)[C@H](O)[C@@H](O)[C@@H](O)CO [L-sorbitol]
ratio (mean current percentage blockage) ([1]; +100 mV): 30.77 ± 0.06%
std (standard deviation of the blocking level) ([1]; +100 mV): 5.97 ± 0.04 pA
